The subject of assay [1] is MOLT-4 cells. In words: Annexin V-FITC/PI flow cytometric analysis of apoptosis. The following applies: 6 hrs. The format is cell-based, Human. The method, then: Events of apoptosis were analyzed using Annexin V-FITC Apoptosis Detection Kit (A 2214 Sigma Aldrich, USA). Human leukemia Cells (MOLT-4, 1x10^6 cells/ml) in 6-well plate were treated with Compound 3f (3 and 5µg/ml), camptothecin (5µM) and incubated for 6 hrs. After incubation, the cells were centrifuged, rinsed with PBS twice and re-suspended in binding buffer (10 mM HEPES/NaOH, pH 7.5 containing 0.14M NaCl and 25 mM CaCl2). An aliquot (500 µl) of suspension was stained with of Annexin V-FITC (5 µl) and Propidium Iodide (10 µl). The cells were stored for 10 minutes at room temperature in the dark and then analyzed by BD-LSR flow cytometer (Becton Dickinson, USA) at two wavelengths to measure fluorescence for of Annexin V & PI binding at 515 and 639 nm.
(In flow cytometry, cells or beads pass a laser one at a time.)

Assay [2] concerns MOLT-4 cells. In words: Flow cytometric DNA cell cycle analysis (sub-G1 fraction). It counts as cell-based, Human. Conditions: 24 hr. The protocol: Effect of DNA content by cell cycle phase distribution was assessed using MOLT-4 cells. […] The incubation period was 3 hrs in case of camptothecin and 24 hrs. in rest of the treatments. The cells were then washed twice with ice-cold PBS, harvested, fixed with ice-cold PBS in 70% ethanol, and stored at -20 °C for 30 min. After fixation, the cells were incubated with RNase A (0.1 mg/ml) at 37°C for 30 min, stained with propidium iodide (50 µg/ml) for 30 min on ice in dark, and then measured for DNA content using BD-LSR Flow cytometer (Becton Dickinson, USA) equipped with electronic doublet, discrimination capability using blue (488nm) excitation from argon laser. Data were collected in list mode on 10,000 events for FL2-A vs. FL2-W and analyzed using Mod Fit 2.0 software (Fig 4). […] The sub-G1 fractions for control and camptothecin were 0.64 (Fig. 4A) and 11.92 % (Fig. 4B).

For another assay, the system named is caspase-6. Put plainly: Caspase-6 colorimetric assay in MOLT-4 cells. It counts as cell-based, Human. Conditions: 5 µg/ml, 24 hrs. The method, then:
Caspase 3 activity was measured by using caspase-3 colorimetric Assay kit (R&D Systems USA). Briefly, MOLT-4 (∼2x10^6cells) were treated with Compound 3f, camptothecin (5µM) and staurosporine (1µM) for 24h, and then cell centrifuged and pellet was lysed using 50µL cell lysis buffer. Cell lysates were mixed with 10µL of dithiothreitol (DTT) and 50µL reaction buffer (2X) containing 5 µL DEVD-pNA, a caspase-3 substrate, and incubated upto 24 hr at 37°C. Additional controls were included in this assay containing no cell lysate without substrate Enzyme-catalyzed release of pNA was monitored using a microplate reader at 405 nm (Fig. 2). Likewise, Caspase 6 activity was also measured using caspase-6 colorimetric Assay kit (R&D Systems USA). However, the enzyme and enzyme substrate (VEID-pNA) were different (Fig. 3). Treatment of the cells with Compound 3f induced caspase-3/6 activities. […] (Fig 2).

The test system of a further assay is 502713. In words: SRB in vitro cytotoxicity, human tumor cell line. It counts as cell-based. Conditions: 10^-5 M, Colon: 502713, read-out: growth inhibition. The method, then: Compounds 3a-g were screened by sulforhodamine-B (SRB) semi-automated assay in a battery of cell lines. […] A., et. al. (1991); Feasibility high flux anticancer screen utilizing diverse panel of human tumor cell lines in culture. J Natl Cancer Inst. 83, 757-766]. Each compound was tested in triplicate sets of experiments at 10^-4 to 10^-6 M concentrations (Table 4).
A stock solution of 2 x 10^-2M was prepared in DMSO. The stock solutions were serially diluted to obtain working test solutions with complete growth medium (RPMI-1640 medium with 2mM glutamine, 100µg/ml streptomycin, pH 7.4, sterilized by filtration and supplemented with 10% fetal bovine serum and 100 units/ml penicillin before use) containing 50 µg/ml of gentamycin to obtain working test solutions. The working test solutions were not filtered/ sterilized but microbial contamination was controlled by addition of gentamycin in complete growth medium used for dilution of stock solutions to prepare working test solutions.
In vitro cytotoxicity against human cancer cell lines was determined^2 [Monk. A., et. al. (1991); Feasibility high flux anticancer screen utilizing diverse panel of human tumor cell lines in culture. J Natl Cancer Inst. 83, 757-766] using 96-well tissue culture plates. The cells were grown in tissue culture flasks in complete growth medium at 37°C in an atmosphere of 5% CO2 and 95% relative humidity in a carbon dioxide incubator. The cell suspension of required cell density (1-2 lakhs/ml) depending on the mass doubling time of cell lines was prepared in complete growth medium for determination of cytotoxicity. The aliquots of 100 µl of cell suspension were added to each well on a 96-well tissue culture plate. The blank wells contained complete medium in place of cell suspension. Simultaneously, control experiments with positive controls containing known anticancer agents were carried out. Cells were incubated for 24 hr.
The test materials (100 µl in each well) were added after 24-hours to the wells containing cell suspension and blank wells. The cells were allowed to grow in presence of test material by further incubating the plates for 48 hours. At the end of incubation period the cell growth was stopped by gently layering trichloroacetic acid (50% TCA, 50µl/well) on top of the medium in all the wells. The plates were incubated at 4°C for 1 hr. The plates were washed five times with distilled water to remove TCA, growth medium, low molecular weight metabolites, serum proteins etc. and air-dried.
The cell growth was measured^3 [Skehan, P, Storeng, R Scudiero, D, Monks, A, Mcmahon, J, Vistica, D, Warren, J.T., Bokesch, H., Kenney, S., Boyd, M.R. (1990). New colorimetric cytotoxicity assay for anti-cancer drug screening. J Natl Cancer Inst. 82: 1107-12] by staining with Sulphorhodamine B. Sulphorhodamine B (SRB, 0.4% in 1% acetic acid, 100 µl/well) was added to each well and plates were allowed to stand at room temperature for 30 minutes. The plates were washed with 1% acetic acid four times and then dried. Tris-HCl buffer (0.01 M, pH 10.5, 100 µl/well) was added to each well to solublise the dye. The plates were shaken gently for 10 minutes on a shaker and the optical density was recorded on ELISA reader at 540 nm. The cell growth was determined by subtracting mean OD value of respective blank from the mean OD value of experimental set. Percent growth in presence of test material was calculated considering the growth in absence of any test material as 100% and in turn percent growth inhibition in presence of test material was calculated. All the experiments were carried out in quadruplicate.

The next assay concerns HL-60 human leukemia. Put plainly: MTT in vitro cytotoxicity. Conditions: Homo sapiens, HL-60, 96 h, read-out: IC50 value Leukemia HL-60.
In another assay the test system is U-937 lymphoma. Put plainly: MTT in vitro cytotoxicity. Conditions: Homo sapiens, U-937, 96 h, read-out: IC50 value Lymphoma U-937.

Molecules are shown by their SMILES.

As usually defined, the inhibition is the percentage by which the read-out fell short of the control. Usually IC50 stands for the concentration that gives 50% inhibition. With `O=C1c2cccc3c([N+](=O)[O-])ccc(c23)C(=O)N1CCCCl` [Compound 3f, 6-Nitro-2-[3-(Chloropropyl)]-1H-benz[de]isoquinoline-1,3-dione], the “late apoptotic cells (Annexin V^+/PI^+)” value with MOLT-4 cells [1] (3 µg/ml) stood at 1.05%; in the assay on MOLT-4 cells [1] (5 µg/ml), 4.82%. In addition, the total apoptotic cells turned out to be 7.43% in the assay with MOLT-4 cells [1] (3 µg/ml) and 18.44% with MOLT-4 cells [1] (5 µg/ml). The “sub-G1 fraction (apoptotic)” value with MOLT-4 cells [2] (1.5 µg/ml) came to 4.52%; with MOLT-4 cells [2] (5 µg/ml), 5.86%. Further, the Caspase-6 activity entry in the assay with caspase-6 is on record as “maximum at 5 µg/ml for 24 hrs”. Moreover, the inhibition at 10 µM in the assay with 502713 is > 50%. In addition, the IC50 was 300 nM in the assay on HL-60 human leukemia and 1950 nM with U-937 lymphoma.
